Experimental data published in the CheMixHub viscosity set.
Where “and” joins values, the source holds several entries; their conditions need not be identical. Equal values may be shown once.

Assay: xn = mol fraction of the nth substance listed

N[C@@H](CO)C(=O)O + O
Conditions | viscosity
298 K, 101 kPa, x1 = 0.0004 | 0.8836 mPa·s
298 K, 101 kPa, x1 = 0.0007 | 0.8853 mPa·s
298 K, 101 kPa, x1 = 0.001 | 0.889 mPa·s and 0.8901 mPa·s
298.15 K, 101 kPa, x1 = 8.92e-05 | 0.9214 mPa·s
298.15 K, 101 kPa, x1 = 0.000181 | 0.9346 mPa·s
298.15 K, 101 kPa, x1 = 0.00045 | 0.9108 mPa·s
298.15 K, 101 kPa, x1 = 0.000898 | 0.9225 mPa·s
298.15 K, 101 kPa, x1 = 0.00135 | 0.9328 mPa·s
298.15 K, 101 kPa, x1 = 0.00178 | 0.9489 mPa·s
298.15 K, 101 kPa, x1 = 0.001798 | 0.942 mPa·s
298.15 K, 101 kPa, x1 = 0.002245 | 0.9508 mPa·s
298.15 K, 101 kPa, x1 = 0.002695 | 0.9596 mPa·s
298.15 K, 101 kPa, x1 = 0.003143 | 0.9678 mPa·s
298.15 K, 101 kPa, x1 = 0.00359 | 0.9758 mPa·s
298.15 K, 101 kPa, x1 = 0.003599 | 0.9614 mPa·s
298.15 K, 101 kPa, x1 = 0.005265 | 0.9714 mPa·s
298.15 K, 101 kPa, x1 = 0.007246 | 0.9945 mPa·s
298.15 K, 101 kPa, x1 = 0.008825 | 1.011 mPa·s
298.15 K, 101 kPa, x1 = 0.01096 | 1.024 mPa·s
298.15 K, 101 kPa, x1 = 0.01198 | 1.04 mPa·s
298.15 K, 101 kPa, x1 = 0.01387 | 1.059 mPa·s
298.15 K, 101.3 kPa, x1 = 0.0008915 | 0.901 mPa·s
298.15 K, 101.3 kPa, x1 = 0.001352 | 0.905 mPa·s
298.15 K, 101.3 kPa, x1 = 0.001784 | 0.909 mPa·s
298.15 K, 101.3 kPa, x1 = 0.002244 | 0.913 mPa·s
298.15 K, 101.3 kPa, x1 = 0.002683 | 0.917 mPa·s
303.15 K, 101 kPa, x1 = 0.00045 | 0.8151 mPa·s
303.15 K, 101 kPa, x1 = 0.000898 | 0.8252 mPa·s
303.15 K, 101 kPa, x1 = 0.00135 | 0.834 mPa·s
303.15 K, 101 kPa, x1 = 0.001798 | 0.8418 mPa·s
303.15 K, 101 kPa, x1 = 0.002245 | 0.8494 mPa·s
303.15 K, 101 kPa, x1 = 0.002695 | 0.8566 mPa·s
303.15 K, 101 kPa, x1 = 0.003143 | 0.8637 mPa·s
303.15 K, 101 kPa, x1 = 0.00359 | 0.8705 mPa·s
303.15 K, 101.3 kPa, x1 = 0.0008915 | 0.807 mPa·s
303.15 K, 101.3 kPa, x1 = 0.001352 | 0.811 mPa·s
303.15 K, 101.3 kPa, x1 = 0.001784 | 0.815 mPa·s
305.15 K, 101 kPa, x1 = 0.0003602 | 0.7851 mPa·s
305.15 K, 101 kPa, x1 = 0.0007201 | 0.7891 mPa·s
305.15 K, 101 kPa, x1 = 0.00108 | 0.7935 mPa·s
305.15 K, 101 kPa, x1 = 0.001439 | 0.7984 mPa·s
305.15 K, 101 kPa, x1 = 0.001798 | 0.8025 mPa·s
305.15 K, 101 kPa, x1 = 0.002157 | 0.8071 mPa·s
308.15 K, 101 kPa, x1 = 8.92e-05 | 0.7615 mPa·s
308.15 K, 101 kPa, x1 = 0.000181 | 0.7756 mPa·s
308.15 K, 101 kPa, x1 = 0.00045 | 0.7347 mPa·s
308.15 K, 101 kPa, x1 = 0.000898 | 0.7434 mPa·s
308.15 K, 101 kPa, x1 = 0.00135 | 0.751 mPa·s
308.15 K, 101 kPa, x1 = 0.00178 | 0.7901 mPa·s
308.15 K, 101 kPa, x1 = 0.001798 | 0.7578 mPa·s
308.15 K, 101 kPa, x1 = 0.002245 | 0.7641 mPa·s
308.15 K, 101 kPa, x1 = 0.002695 | 0.7704 mPa·s
308.15 K, 101 kPa, x1 = 0.003143 | 0.7764 mPa·s
308.15 K, 101 kPa, x1 = 0.00359 | 0.7822 mPa·s
308.15 K, 101 kPa, x1 = 0.003599 | 0.8056 mPa·s
308.15 K, 101 kPa, x1 = 0.005265 | 0.8198 mPa·s
308.15 K, 101 kPa, x1 = 0.007246 | 0.8356 mPa·s
308.15 K, 101 kPa, x1 = 0.008825 | 0.8542 mPa·s
308.15 K, 101 kPa, x1 = 0.01096 | 0.8741 mPa·s
308.15 K, 101 kPa, x1 = 0.01198 | 0.8898 mPa·s
308.15 K, 101 kPa, x1 = 0.01387 | 0.9046 mPa·s
310.15 K, 101 kPa, x1 = 0.0003602 | 0.7043 mPa·s
310.15 K, 101 kPa, x1 = 0.0007201 | 0.708 mPa·s
310.15 K, 101 kPa, x1 = 0.00108 | 0.7119 mPa·s
310.15 K, 101 kPa, x1 = 0.001439 | 0.7158 mPa·s
310.15 K, 101 kPa, x1 = 0.001798 | 0.7189 mPa·s
310.15 K, 101 kPa, x1 = 0.002157 | 0.7232 mPa·s
313.15 K, 101 kPa, x1 = 0.00045 | 0.6665 mPa·s
313.15 K, 101 kPa, x1 = 0.000898 | 0.6741 mPa·s
313.15 K, 101 kPa, x1 = 0.00135 | 0.6807 mPa·s
313.15 K, 101 kPa, x1 = 0.001798 | 0.6867 mPa·s
313.15 K, 101 kPa, x1 = 0.002245 | 0.6922 mPa·s
313.15 K, 101 kPa, x1 = 0.002695 | 0.6976 mPa·s
313.15 K, 101 kPa, x1 = 0.003143 | 0.7029 mPa·s
313.15 K, 101 kPa, x1 = 0.00359 | 0.7078 mPa·s
315.15 K, 101 kPa, x1 = 0.0003602 | 0.6498 mPa·s
315.15 K, 101 kPa, x1 = 0.0007201 | 0.6537 mPa·s
315.15 K, 101 kPa, x1 = 0.00108 | 0.6566 mPa·s
315.15 K, 101 kPa, x1 = 0.001439 | 0.66 mPa·s
315.15 K, 101 kPa, x1 = 0.001798 | 0.6629 mPa·s
315.15 K, 101 kPa, x1 = 0.002157 | 0.6666 mPa·s
318.15 K, 101 kPa, x1 = 8.92e-05 | 0.6512 mPa·s
318.15 K, 101 kPa, x1 = 0.000181 | 0.6602 mPa·s
318.15 K, 101 kPa, x1 = 0.00045 | 0.6097 mPa·s
318.15 K, 101 kPa, x1 = 0.000898 | 0.6164 mPa·s
318.15 K, 101 kPa, x1 = 0.00135 | 0.6222 mPa·s
318.15 K, 101 kPa, x1 = 0.00178 | 0.6723 mPa·s
318.15 K, 101 kPa, x1 = 0.001798 | 0.6275 mPa·s
318.15 K, 101 kPa, x1 = 0.002245 | 0.6324 mPa·s
318.15 K, 101 kPa, x1 = 0.002695 | 0.6371 mPa·s
318.15 K, 101 kPa, x1 = 0.003143 | 0.6417 mPa·s
318.15 K, 101 kPa, x1 = 0.00359 | 0.6461 mPa·s
318.15 K, 101 kPa, x1 = 0.003599 | 0.6845 mPa·s
318.15 K, 101 kPa, x1 = 0.005265 | 0.6953 mPa·s
318.15 K, 101 kPa, x1 = 0.007246 | 0.7012 mPa·s
318.15 K, 101 kPa, x1 = 0.008825 | 0.7125 mPa·s
318.15 K, 101 kPa, x1 = 0.01096 | 0.7242 mPa·s
318.15 K, 101 kPa, x1 = 0.01198 | 0.7345 mPa·s
318.15 K, 101 kPa, x1 = 0.01387 | 0.7466 mPa·s
